Tested on: BNP in heart tissue
Assay: BNP mRNA and protein levels in cardiac biopsies of STZ-treated pigs (real-time PCR, RIA)
Assay type: in vivo, pig
Details: streptozotocin (STZ)-treated pigs; 3.3 μg/kg s.c. once daily for 4 weeks; right atrial, left atrial and left ventricular biopsies; FIG. 1
Experimental: Hearts from 12 streptozotocin (STZ)-treated pigs were collected. The pigs were treated with STZ 2 weeks prior to dosing with either the GLP-1 derivative Arg^34, Lys^26(N^ε-(γ-Glu(N^α-hexadecanoyl)))-GLP-1(7-37) (NN2211) for 4 weeks, dose 3.3 μg/kg s.c. once daily, or vehicle. STZ-treated pigs were either hyperglycemic or glucose intolerant and had impaired insulin secretion upon oral glucose tolerance tests. BNP mRNA and protein levels in cardiac biopsies were measured with real-time PCR and RIA assays, respectively. BNP mRNA levels were normalized by β-actin mRNA levels.
BNP mRNA levels were similar in right atrial (RA), left atrial (LA) and in left ventricular (LV) biopsies from vehicle treated diabetic pigs (−GLP).

CCCCCCCCCCCCCCCC(=O)N[C@@H](CCC(=O)NCCCC[C@H](NC(=O)[C@H](C)NC(=O)[C@H](C)NC(=O)[C@H](CCC(N)=O)NC(=O)CNC(=O)[C@H](CCC(=O)O)NC(=O)[C@H](CC(C)C)NC(=O)[C@H](Cc1ccc(O)cc1)NC(=O)[C@H](CO)NC(=O)[C@H](CO)NC(=O)[C@@H](NC(=O)[C@H](CC(=O)O)NC(=O)[C@H](CO)NC(=O)[C@@H](NC(=O)[C@H](Cc1ccccc1)NC(=O)[C@@H](NC(=O)CNC(=O)[C@H](CCC(=O)O)NC(=O)[C@H](C)NC(=O)[C@@H](N)Cc1cnc[nH]1)[C@@H](C)O)[C@@H](C)O)C(C)C)C(=O)N[C@@H](CCC(=O)O)C(=O)N[C@@H](Cc1ccccc1)C(=O)N[C@H](C(=O)N[C@@H](C)C(=O)N[C@@H](Cc1c[nH]c2ccccc12)C(=O)N[C@@H](CC(C)C)C(=O)N[C@H](C(=O)N[C@@H](CCCNC(=N)N)C(=O)NCC(=O)N[C@@H](CCCNC(=N)N)C(=O)NCC(=O)O)C(C)C)[C@@H](C)CC)C(=O)O [NN2211, Arg^34, Lys^26(N^ε-(γ-Glu(N^α-hexadecanoyl)))-GLP-1(7-37)]
levels of BNP (BNP mRNA normalized by β-actin mRNA) in cardiac biopsies vs vehicle: significantly lower

Reference: US20140206615A1, “GLP-1 AGONIST AND CARDIOVASCULAR COMPLICATIONS” (NOVO NORDISK A/S, priority 2002, published 2014)
